Results reported in patent US20230212174A1, “PYRROLO[2,1-F][1,2,4]TRIAZINE DERIVATIVE AND USE THEREOF” (Tencent Technology (Shenzhen) Company Limited, priority 2021, published 2023).

These compounds were tested against T1, TTK (Homo sapiens, UniProt P33981) (assay: TTK inhibitory activity (kinase reaction, Fluorescein-PolyGT substrate, antibody/EDTA stop, Envision read)). Details: 0.5 nM TTK, 7 uM ATP, 0.2 uM Fluorescein-PolyGT, 28° C., 30 min.
T1 sequence (P33981 1-857): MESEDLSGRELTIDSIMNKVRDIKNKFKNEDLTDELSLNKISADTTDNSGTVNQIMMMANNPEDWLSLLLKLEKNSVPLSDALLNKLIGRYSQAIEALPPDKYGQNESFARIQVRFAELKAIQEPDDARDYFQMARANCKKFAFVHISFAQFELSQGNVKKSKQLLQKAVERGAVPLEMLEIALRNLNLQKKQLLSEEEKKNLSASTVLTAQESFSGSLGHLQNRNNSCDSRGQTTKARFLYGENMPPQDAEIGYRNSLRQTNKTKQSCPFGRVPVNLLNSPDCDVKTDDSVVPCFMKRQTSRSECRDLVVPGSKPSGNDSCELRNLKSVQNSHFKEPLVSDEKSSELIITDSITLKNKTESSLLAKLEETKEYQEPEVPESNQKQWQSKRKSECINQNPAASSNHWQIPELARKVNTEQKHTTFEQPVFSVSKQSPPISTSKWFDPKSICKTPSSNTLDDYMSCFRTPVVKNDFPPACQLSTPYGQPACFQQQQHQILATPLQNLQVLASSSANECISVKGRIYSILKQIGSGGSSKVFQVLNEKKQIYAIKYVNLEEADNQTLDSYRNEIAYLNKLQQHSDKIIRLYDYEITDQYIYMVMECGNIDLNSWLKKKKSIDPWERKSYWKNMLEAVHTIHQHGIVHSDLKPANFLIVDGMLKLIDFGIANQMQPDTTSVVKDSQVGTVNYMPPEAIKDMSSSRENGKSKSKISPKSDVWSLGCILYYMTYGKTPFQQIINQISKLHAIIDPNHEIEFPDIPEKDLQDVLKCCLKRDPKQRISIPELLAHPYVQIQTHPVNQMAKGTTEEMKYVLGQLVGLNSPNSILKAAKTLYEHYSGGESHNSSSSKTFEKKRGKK
Assay type: biochemical
Method: The experiment aims to detect the inhibitory activity of the compound of the present disclosure on TTK in vitro.
The TTK kinase reaction system was 10 μL, including 0.5 nM TTK, test compound over a concentration gradient, 10 mM MgCl2, 2 mM DTT, 7 uM ATP, 0.2 uM Fluorescein-PolyGT (Fluorescein-Poly Glu:Tyr (4:1)), 0.01% Triton X-100, 0.01% BSA, and 50 mM HEPES pH 7.5. The enzyme and the test compound of the present disclosure were added into a 384-well plate, and then a substrate and ATP were added. Then the system was incubated at a constant temperature of 28° C. 30 min after the reaction, 10 μL of a mixed solution of a corresponding antibody and EDTA was added to terminate the reaction, and incubated for 60 min at a constant temperature of 28° C. The data was read on Envision instrument. A curve was plotted with the Log concentration of the inhibitor as the X axis and the inhibition rate as the Y axis, and IC50 was calculated by Y=Bottom+(Top-Bottom)/(1+(IC50/X)^HillSlope).

Structure (SMILES) | IC50 [nM]
CCOc1cc(-c2nncn2C)ccc1Nc1ncc2ccc(-c3cnn(C)c3)n2n1 [Compound 18] | 2.1
CCOc1cc(-c2nncn2C)ccc1Nc1ncc2ccc(C3CCCCC3)n2n1 [Compound 15] | 4.2
CCOc1cc(-c2nncn2C)ccc1Nc1ncc2ccc(C3=CCCC3)n2n1 [Compound 12] | 8.7
CCOc1cc(-c2nncn2C)ccc1Nc1nc(NCC(C)(C)C)c2cccn2n1 [Compound 1] | 27
CCOc1cc(-c2nncn2C)ccc1Nc1nc(NC2CCOCC2)c2cccn2n1 [Compound 4] | 4
CCOc1cc(-c2nncn2C)ccc1Nc1ncc2ccc(C3CCOCC3)n2n1 [Compound 17] | 6.3
CCOc1cc(-c2nncn2C)ccc1Nc1ncc2ccc(C3CCCC3)n2n1 [Compound 13] | 7.1
CCOc1cc(-c2nncn2C)ccc1Nc1nc(NC2CCCCC2)c2c(Cl)ccn2n1 [Compound 10] | 5.5
CCOc1cc(-c2nncn2C)ccc1Nc1nc(NC2CCCC2)c2cccn2n1 [Compound 3] | 8.9
